Earlier results as cited in publication PMC4726456 (Cell, 2014).

How the values were obtained:
[1] = system: tubulin; conditions: ref Mulder et al., 2009
[2] = system: cellular microtubules; conditions: ref Piperno et al., 1987; Takemura et al., 1992

Dolastatin-10
Induction of tubulin rings [1]: induces tubulin rings by curving individual protofilaments

CC(=O)O[C@H]1C(=O)[C@@]2(C)[C@H]([C@H](OC(=O)c3ccccc3)[C@]3(O)C[C@H](OC(=O)[C@H](O)[C@@H](NC(=O)c4ccccc4)c4ccccc4)C(C)=C1C3(C)C)[C@]1(OC(C)=O)CO[C@@H]1C[C@@H]2O [taxol]
Effect on microtubule acetylation levels in cells [2]: increases acetylation levels
